The assay has as its system r(CUG) repeat/Muscleblind-like protein 1. In words: Inhibition of 5'-biotinylated r(CUG) repeat (unknown origin) to His6-tagged MBNL1 (unknown origin) complex formation preincubated for 5 mins followed by compound addition for 15 mins prior to streptavidin-XL664 and anti-His6-Tb antibody addition for 1 hr by TR-FRET method. Type of assay: protein assay.
Compound `NCCN1CCN=C1c1ccc(C(=O)Nc2ccc(C3=NCCN3)cc2)cc1` gave an IC50 of 19 µM.
Consider `COc1cccc(Nc2cc(C)nc3ccc(C(=N)N)cc23)c1`, for which the IC50 is 100 µM. Against the preceding compound, the IC50 is about 5.3-fold higher.
Next, `N=C(N)Nc1ccc(OC(=O)c2ccc(NC(=N)N)cc2)cc1`: 8 µM.

The values are drawn from ChEMBL document CHEMBL6127010, “NMR structures of small molecules bound to a model of a CUG RNA repeat expansion” (Bioorg Med Chem Lett, 2024).
